Data on six compounds can be found in publication PMC7093416, “Selective USP7 inhibition elicits cancer cell killing through a p53-dependent mechanism” (Scientific Reports, 2020).

The target of experiment [1] is T1, full-length USP7 (Homo sapiens, UniProt Q93009).
T1 construct: The constructs encoding USP7 full length (amino acids 1–1102) and catalytic domain (208–560); inferred from Ni-NTA purification; made in house; host or cells: E. coli BL21 (DE3)
In words: Ub-AMC enzymatic assay, full-length USP7, 6 h pre-incubation. It is filed as biochemical. The following applies: for IC50: Ub-AMC, read-out: IC50. As to the method:
Full length USP7 was tested for its activity in Ubiquitin-AMC assay in presence or absence of inhibitors. USP7 (5 nM) was pre-incubated for 6 hours at room temperature with different concentrations of inhibitors or DMSO as a control in 50 mM HEPES pH 7.5, 0.5 mM EDTA, 11 uM ovalbumin, and 5 mM DTT. Ubiquitin-AMC (Boston Biochem) was then added to a final concentration of 500 nM. The initial rate of the reaction was measured by collecting fluorescence data at one minute intervals over 30-minute period using a Clariostar fluorescence plate reader at excitation and emission wavelength of 345 and 445 nm respectively. The calculated initial rate values were plotted against inhibitor concentrations to determine IC50s. All the experimental data were plotted using Prism GraphPad. All assays for each compound were performed at least twice for each compound.

Experiment [2] has as its target T1, full-length USP7. The experiment in a line: Ub-AMC time course assay for kinact / KI. It is filed as biochemical. On the procedure: To calculate the ki and kianct values for XL-9678-041, the procedure above was used, but different concentrations of inhibitor were incubated with USP7 for different time points (5 min - 3 hours) before adding Ubiquitin-AMC. To determine kobs, the time course curves were fit to the equation y = ymax(1 − exp(−kobs⋅x)). The kobs values were then plotted against the inhibitor concentrations and fit to the equation y = kinact/(1 + (ki/x)) to obtain the values for ki and kianct.
Supplementary Figure Captions
Figure S1: Full-length recombinant purified USP7 was pre-incubated with XL041 at the indicated concentrations for the indicated times, then Ub-AMC was added and fluorescence was monitored. Graphpad Prism software was used to calculate initial reaction velocity and derive KI / kinact values (bottom panel).
Figure S2: Mass spectra (left) and zero-charge mass spectra (right) of WT USP7 catalytic domain incubated for 4 hours with DMSO (top) or 2.5-fold molar excess XL058 (bottom). […]
Figure S5: MCF7 cells were transfected with the indicated pcDNA constructs for 48 hours, then treated with XL177A at the indicated concentration for 3 hours. Cells were lysed, and FLAG-USP7 target engagement was assessed with the DUB ABP HA-Ub-VS. Densitometry was performed using ImageStudio software and analyzed using Graphpad Prism. […]

Experiment [3] deals with T2, USP7 catalytic domain (Homo sapiens, UniProt Q93009).
T2 construct: catalytic domain (208–560) used were cloned as described; inferred from Ni-NTA purification; made in house; host or cells: E. coli BL21 (DE3)
In words: Intact MS / CE-MS labeling of purified USP7 catalytic domain. The conditions noted are these: 2.5-fold molar excess compound. It is filed as binding. On the procedure:
Purified USP7 catalytic domain was diluted to 20 μM in 10 μL labeling buffer (20 mM HEPES pH 7.5, 150 mM NaCl, 1 mM TCEP) and incubated for the indicated times with 50 μM (2.5×) compound. After incubation, samples were flash frozen in liquid nitrogen and stored at −80 °C until analysis.
Intact mass analysis was performed by injecting 5 µg USP7 catalytic domain onto a self-packed reversed phase column (1/32” O.D. × 500 um I.D., 5 cm of POROS 10R2 resin). After desalting, protein was eluted with an HPLC gradient (0–100% B in 4 minutes, A = 0.2 M acetic acid in water, B = 0.2 M acetic acid in acetonitrile, flow rate ~30 µL/min) into an LTQ ion trap mass spectrometer (ThermoFisher Scientific, San Jose, CA). Mass spectra were processed using MagTran1.03b2[52].
Peptides were desalted using SP3[53], dried by vacuum centrifugation, and reconstituted in 1% formic acid/50% acetonitrile with 100 mM ammonium acetate. Peptides were then analyzed by CE-MS using a ZipChip CE system and autosampler (908 Devices, Boston, MA) interfaced to a QExactive HF mass spectrometer (ThermoFisher Scientific, San Jose, CA). Peptide solution was loaded for 30 seconds, and the mass spectrometer was operated in data dependent mode and subjected the 5 most abundant ions in each MS scan (60k resolution, 3E6 target, lock mass enabled) to MS/MS (15k resolution, 1E5 target, 100 ms max inject time). […]

Experiment [4] deals with MCF7 cells. The experiment in a line: 3' DGE RNA-seq transcriptional profiling. The experiment is classed as cell-based. More on the design: log2FoldChange: concentration or dose not given beside the values. The conditions noted are these: gene ABCA12; concentration 1. On the procedure: The DGE RNA sequencing was performed following the published method[39],[40] with modifications as described below. MCF7 cells were seeded in a 384 well plate at 2500 cells per well, allowed to adhere for 24 hours, then treated with two doses in triplicate of XL177A, XL177B, Nutlin-3, or DMSO. After 24 hours of treatment, an EL405x plate washer (BioTek) was used to aspirate the media and wash once with PBS. Cells were lysed in the plate with 10 µl of lysis buffer (1x Qiagen TCL, 1% BME) for 5 minutes at room temperature, then stored at −80 °C. Automated liquid handling was performed with assistance from ICCB-Longwood Screening Facility. A BRAVO Automated Liquid Handling Platform (Agilent) was used for RNA extraction as follows. The lysate was mixed and 10 µl was transferred to a 384 well PCR plate. 28 µl of homemade SPRI[66] (solid-phase reversible immobilization) beads were added to the lysate and mixed. After 5 minutes, the beads were pulled down by placing the plate on a magnet, then the beads were washed twice with 80% ethanol. Beads were air dried for 1 minute, then 20 µl of nuclease free water was added, the plate was removed from the magnet, and the beads were resuspended. After 5 minutes, the plate was placed back on the magnet to pull down the beads. The supernatant was transferred to a fresh 384 well plate. RNA quantity was checked with the Qubit Fluorometer and RNA quality was assessed using the Agilent BioAnalyzer RNA 6000 Pico Kit. The BRAVO platform was again used to transfer 5 µl of supernatant was transferred to a fresh 384 well plate with RT master mix and 1 µl of barcoded E3V6NEXT adapters for reverse transcription and template switching. The plate was incubated for 90 minutes at 42 °C, then cDNA was pooled, purified with the QIAquick PCR purification kit. The full-length cDNA was treated with Exonuclease I to remove excess primers for 30 minutes at 37 °C then amplified x5 cycles with Advantage 2 PCR Enzyme System using the SINGV6 primer. The amplified full-length cDNA was purified with Agencourt AMPure XP magnetic beads and quantitated by Qubit Fluorometer. The sequencing library was prepared using the Nextera DNA kit following the manufacturer’s instructions. Briefly, 55 ng of cDNA was tagmented for 5 minutes at 55 °C then purified using Zymo DNA Clean & Concetrator-5 column, then amplified x7 cycles and purified using a 0.9x ratio of AMPure XP magnetic beads. The library size distribution was assessed by Agilent BioAnalyzer HS DNA Kit before it was quantified by qPCR and sequenced on an Illumina NextSeq at the Biopolymers Facility at Harvard Medical School.
The bcbio-nextgen single cell RNA-seq analysis pipeline (https://bcbio-nextgen.readthedocs.io/en/latest/) was used to deconvolve the well barcodes and convert reads to counts. Any detected barcode that differed by more than one base from an expected barcode was removed. Unique reads were identified using unique molecular identifiers (UMIs) in order to remove PCR duplicates. The reads remaining after these filters were aligned to the transcriptome (GRCh38) using RapMap[67]. The R package DESeq. 2 version 1.20.0 (R version 3.5.1) was used for differential expression analysis.

Experiment [5] has as its system TC32 cells. In words: Cell viability (CellTiter-Glo) in TC32 cells expressing sgRNA (TP53-KO vs control). It is filed as cell-based. The conditions noted are these: 3 days, Cell Titer Glo. On the procedure:
(§1) Cells were plated in 384-well culture-treated plates and allowed to settle overnight. After drug treament and appropriate incubation time, cell viability was assessed using the CellTiter-Glo Luminescent Cell Viability Assay (Promega). Luminescence was read on a Fluostar Omega Reader (BMG Labtech).
On the technique in general: In ATP-based viability assays light output follows the ATP content of the culture.

The test system of experiment [6] is Ewing Sarcoma, AML, multiple myeloma and rhabdoid cell lines. The experiment in a line: Cell viability (CellTiter-Glo) in individual cell line panels. The experiment is classed as cell-based. The conditions noted are these: Ewing Sarcoma lines and TC32 cells, 3 days. As to the method:
as §1

Like-named read-outs stand apart in the source and are kept apart here.

T1 sequence (Q93009 whole entry, the tested form may be a part): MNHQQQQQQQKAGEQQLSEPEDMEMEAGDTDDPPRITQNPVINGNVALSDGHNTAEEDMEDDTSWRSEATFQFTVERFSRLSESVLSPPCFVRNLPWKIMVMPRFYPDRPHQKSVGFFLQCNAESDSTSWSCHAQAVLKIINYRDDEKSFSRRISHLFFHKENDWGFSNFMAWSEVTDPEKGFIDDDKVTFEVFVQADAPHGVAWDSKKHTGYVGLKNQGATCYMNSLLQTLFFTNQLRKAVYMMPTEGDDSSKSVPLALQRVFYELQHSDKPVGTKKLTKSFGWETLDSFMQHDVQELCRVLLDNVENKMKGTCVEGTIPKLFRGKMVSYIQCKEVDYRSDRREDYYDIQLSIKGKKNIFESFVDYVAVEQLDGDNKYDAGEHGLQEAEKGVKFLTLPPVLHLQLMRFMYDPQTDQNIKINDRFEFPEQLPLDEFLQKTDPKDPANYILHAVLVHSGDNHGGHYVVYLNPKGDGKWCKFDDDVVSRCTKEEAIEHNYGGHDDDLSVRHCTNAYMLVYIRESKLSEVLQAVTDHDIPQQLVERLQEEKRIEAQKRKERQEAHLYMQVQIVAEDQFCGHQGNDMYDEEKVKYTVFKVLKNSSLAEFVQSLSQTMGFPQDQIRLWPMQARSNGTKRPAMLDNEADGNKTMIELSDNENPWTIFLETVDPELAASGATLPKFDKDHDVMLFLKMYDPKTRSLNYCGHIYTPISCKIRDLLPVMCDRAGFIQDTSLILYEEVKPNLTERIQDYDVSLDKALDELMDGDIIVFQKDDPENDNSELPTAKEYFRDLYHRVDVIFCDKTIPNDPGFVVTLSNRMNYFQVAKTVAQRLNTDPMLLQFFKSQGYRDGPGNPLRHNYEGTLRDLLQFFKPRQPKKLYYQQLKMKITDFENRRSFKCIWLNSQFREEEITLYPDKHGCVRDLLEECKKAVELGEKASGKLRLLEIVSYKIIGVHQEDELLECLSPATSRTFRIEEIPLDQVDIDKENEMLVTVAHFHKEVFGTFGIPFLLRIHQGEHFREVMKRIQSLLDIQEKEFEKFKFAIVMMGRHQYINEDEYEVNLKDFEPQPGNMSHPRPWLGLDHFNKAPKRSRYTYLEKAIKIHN
T2 sequence (Q93009 208-560): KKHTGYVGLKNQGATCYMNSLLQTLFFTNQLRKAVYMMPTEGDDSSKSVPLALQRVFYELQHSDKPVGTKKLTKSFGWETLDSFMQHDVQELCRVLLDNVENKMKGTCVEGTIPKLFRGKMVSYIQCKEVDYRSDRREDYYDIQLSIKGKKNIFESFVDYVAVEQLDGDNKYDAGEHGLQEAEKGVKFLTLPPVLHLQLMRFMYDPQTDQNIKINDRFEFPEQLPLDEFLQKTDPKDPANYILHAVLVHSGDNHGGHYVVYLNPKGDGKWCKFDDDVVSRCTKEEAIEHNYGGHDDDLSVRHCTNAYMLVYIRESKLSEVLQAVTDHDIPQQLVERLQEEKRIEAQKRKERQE

As to `CN1CCN(CCC(=O)Nc2ccc3c(=O)n(CC4(O)CCN(C(=O)CCCCNC(=O)c5ccc6c(Cl)c7c(nc6c5)CCCC7)CC4)cnc3c2)CC1` [XL041], the IC50 (usually the point on the concentration scale where inhibition reaches its midpoint) in experiment [1] (Table S1) worked out at 152 nM. The mode of inhibition result in experiment [2] is reported as “irreversible mode of inhibition”. The kinact (as a rule, the maximal first-order rate at which the target is inactivated) in experiment [2] (pre-incubation 5 min - 3 hours) was 0.00373 s⁻¹.

Take `CN1CCN(CCC(=O)Nc2ccc3c(=O)n(CC4CCN(C(=O)C(CCCNC(=O)c5ccc6c(Cl)c7c(nc6c5)CCCC7)Cc5ccccc5)CC4)cnc3c2)CC1` (centres unmarked) [XL024]: in experiment [1], the “less potent than XL058” value is ~ 10 fold, the “less potent than XL112” value is given as ~ 1,000 fold and the IC50 turned out to be 8000 nM. Moreover, in experiment [1] (Table S1), the IC50 stood at 8130 nM.

In the case of `CN1CCN(CCC(=O)Nc2ccc3c(=O)n(CC4(O)CCN(C(=O)C(CCCNC(=O)c5ccc6c(Cl)c7c(nc6c5)CCCC7)Cc5ccccc5)CC4)cnc3c2)CC1` (centres unmarked) [XL112], the IC50 in experiment [1] is 5.9 nM.

As for `CN1CCN(CCC(=O)Nc2ccc3c(=O)n(CC4(O)CCN(C(=O)C(CCCNC(=O)c5ccc6cc7c(nc6c5)CCCC7)Cc5ccccc5)CC4)cnc3c2)CC1` (centres unmarked) [XL058], the IC50 in experiment [1] was found to be 904 nM. In addition, in experiment [3], the “labeling of USP7 catalytic domain by MS” value is on record as “unable to label”.

`COc1ccc(C2=N[C@@H](c3ccc(Cl)cc3)[C@@H](c3ccc(Cl)cc3)N2C(=O)N2CCNC(=O)C2)c(OC(C)C)c1` [nutlin3a] gave a log2FoldChange in experiment [4] of 0.9473.

On to `CCc1c(-c2ccc3[nH]ncc3c2)cnc(N)c1-c1ccc(O)cc1` [GNE-6640], for which, in experiment [5], the “differential response in TC32 TP53 knock out cells” value is “no differential”. Also, the figures for the “selectivity for TP53-WT versus TP53-mutant or TP53-KO cells” value in experiment [6] and in experiment [6] (listed as SB1_F_057) were “showed little selectivity” and “no differential response”, respectively.
